The source made the active and inactive calls. No cut-off for these calls is given here.
Tests used:
[1] = Antiproliferative activity against human EB3 cells assessed as growth inhibition incubated for 3 days by MTT assay; format: functional; conditions: EB-3, 72 h
EB-3 = conditions: Homo sapiens, at 10 µM
Description: Antiproliferative activity against human EB3 cells at 10 uM incubated for 3 days by MTT assay

Histone deacetylase 2 = Histone deacetylase 2 (Homo sapiens, UniProt Q92769); test: Inhibition of human recombinant HDAC2 using Ac-Leu-Gly-Lys (Ac)-AMC substrate incubated for 30 mins by fluorescence assay
Sequence of Histone deacetylase 2 (Q92769 whole entry): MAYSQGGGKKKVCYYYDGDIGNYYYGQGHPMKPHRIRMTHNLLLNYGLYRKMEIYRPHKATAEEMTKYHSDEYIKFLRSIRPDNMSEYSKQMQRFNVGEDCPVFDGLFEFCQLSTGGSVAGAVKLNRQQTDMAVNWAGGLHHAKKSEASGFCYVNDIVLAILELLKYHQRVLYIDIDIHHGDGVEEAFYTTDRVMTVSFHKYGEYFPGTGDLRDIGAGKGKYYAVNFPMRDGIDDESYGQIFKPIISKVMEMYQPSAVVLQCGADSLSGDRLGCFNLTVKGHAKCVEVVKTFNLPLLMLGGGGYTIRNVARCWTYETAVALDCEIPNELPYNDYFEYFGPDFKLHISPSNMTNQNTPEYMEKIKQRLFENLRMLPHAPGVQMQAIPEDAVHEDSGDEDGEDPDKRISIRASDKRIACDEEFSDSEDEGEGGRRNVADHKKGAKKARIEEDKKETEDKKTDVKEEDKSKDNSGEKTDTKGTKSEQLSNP

Histone deacetylase 1 = Histone deacetylase 1 (Homo sapiens, UniProt Q13547); test: Inhibition of human recombinant HDAC1 using Ac-Leu-Gly-Lys (Ac)-AMC substrate incubated for 30 mins by fluorescence assay
Sequence of Histone deacetylase 1 (Q13547 whole entry): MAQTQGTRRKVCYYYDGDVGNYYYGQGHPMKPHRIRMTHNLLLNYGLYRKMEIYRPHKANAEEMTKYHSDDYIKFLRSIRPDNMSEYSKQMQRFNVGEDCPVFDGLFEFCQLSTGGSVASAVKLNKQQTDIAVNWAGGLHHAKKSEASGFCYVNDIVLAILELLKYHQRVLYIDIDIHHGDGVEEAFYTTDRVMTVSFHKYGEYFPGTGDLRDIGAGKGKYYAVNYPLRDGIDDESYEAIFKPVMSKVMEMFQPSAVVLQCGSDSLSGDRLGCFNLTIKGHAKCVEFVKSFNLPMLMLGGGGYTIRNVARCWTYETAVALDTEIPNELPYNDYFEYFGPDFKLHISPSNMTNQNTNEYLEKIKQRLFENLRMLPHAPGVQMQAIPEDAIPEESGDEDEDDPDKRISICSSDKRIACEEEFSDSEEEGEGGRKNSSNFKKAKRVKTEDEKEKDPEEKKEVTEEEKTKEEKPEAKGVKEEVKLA

[2] = target: T1, Histone deacetylase 3/Nuclear receptor corepressor 2 (HDAC3/NCoR2) (Homo sapiens, UniProt O15379); test: Inhibition of human recombinant HDAC3/NCoR2 using Ac-Leu-Gly-Lys (Ac)-AMC substrate incubated for 30 mins by fluorescence assay; format: protein-complex assay
T1 sequence (O15379 whole entry): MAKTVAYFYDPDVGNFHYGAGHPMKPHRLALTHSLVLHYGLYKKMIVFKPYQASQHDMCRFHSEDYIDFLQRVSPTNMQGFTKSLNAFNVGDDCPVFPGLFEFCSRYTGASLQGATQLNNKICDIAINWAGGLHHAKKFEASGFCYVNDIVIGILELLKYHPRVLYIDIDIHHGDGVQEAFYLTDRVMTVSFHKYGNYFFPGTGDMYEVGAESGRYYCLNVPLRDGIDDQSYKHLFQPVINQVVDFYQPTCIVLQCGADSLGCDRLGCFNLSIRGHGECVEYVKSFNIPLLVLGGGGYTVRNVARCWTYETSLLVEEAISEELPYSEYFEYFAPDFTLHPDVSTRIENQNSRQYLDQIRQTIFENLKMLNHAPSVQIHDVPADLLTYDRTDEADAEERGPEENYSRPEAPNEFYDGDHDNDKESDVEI
T1 sequence (Q9Y618 whole entry, further chain): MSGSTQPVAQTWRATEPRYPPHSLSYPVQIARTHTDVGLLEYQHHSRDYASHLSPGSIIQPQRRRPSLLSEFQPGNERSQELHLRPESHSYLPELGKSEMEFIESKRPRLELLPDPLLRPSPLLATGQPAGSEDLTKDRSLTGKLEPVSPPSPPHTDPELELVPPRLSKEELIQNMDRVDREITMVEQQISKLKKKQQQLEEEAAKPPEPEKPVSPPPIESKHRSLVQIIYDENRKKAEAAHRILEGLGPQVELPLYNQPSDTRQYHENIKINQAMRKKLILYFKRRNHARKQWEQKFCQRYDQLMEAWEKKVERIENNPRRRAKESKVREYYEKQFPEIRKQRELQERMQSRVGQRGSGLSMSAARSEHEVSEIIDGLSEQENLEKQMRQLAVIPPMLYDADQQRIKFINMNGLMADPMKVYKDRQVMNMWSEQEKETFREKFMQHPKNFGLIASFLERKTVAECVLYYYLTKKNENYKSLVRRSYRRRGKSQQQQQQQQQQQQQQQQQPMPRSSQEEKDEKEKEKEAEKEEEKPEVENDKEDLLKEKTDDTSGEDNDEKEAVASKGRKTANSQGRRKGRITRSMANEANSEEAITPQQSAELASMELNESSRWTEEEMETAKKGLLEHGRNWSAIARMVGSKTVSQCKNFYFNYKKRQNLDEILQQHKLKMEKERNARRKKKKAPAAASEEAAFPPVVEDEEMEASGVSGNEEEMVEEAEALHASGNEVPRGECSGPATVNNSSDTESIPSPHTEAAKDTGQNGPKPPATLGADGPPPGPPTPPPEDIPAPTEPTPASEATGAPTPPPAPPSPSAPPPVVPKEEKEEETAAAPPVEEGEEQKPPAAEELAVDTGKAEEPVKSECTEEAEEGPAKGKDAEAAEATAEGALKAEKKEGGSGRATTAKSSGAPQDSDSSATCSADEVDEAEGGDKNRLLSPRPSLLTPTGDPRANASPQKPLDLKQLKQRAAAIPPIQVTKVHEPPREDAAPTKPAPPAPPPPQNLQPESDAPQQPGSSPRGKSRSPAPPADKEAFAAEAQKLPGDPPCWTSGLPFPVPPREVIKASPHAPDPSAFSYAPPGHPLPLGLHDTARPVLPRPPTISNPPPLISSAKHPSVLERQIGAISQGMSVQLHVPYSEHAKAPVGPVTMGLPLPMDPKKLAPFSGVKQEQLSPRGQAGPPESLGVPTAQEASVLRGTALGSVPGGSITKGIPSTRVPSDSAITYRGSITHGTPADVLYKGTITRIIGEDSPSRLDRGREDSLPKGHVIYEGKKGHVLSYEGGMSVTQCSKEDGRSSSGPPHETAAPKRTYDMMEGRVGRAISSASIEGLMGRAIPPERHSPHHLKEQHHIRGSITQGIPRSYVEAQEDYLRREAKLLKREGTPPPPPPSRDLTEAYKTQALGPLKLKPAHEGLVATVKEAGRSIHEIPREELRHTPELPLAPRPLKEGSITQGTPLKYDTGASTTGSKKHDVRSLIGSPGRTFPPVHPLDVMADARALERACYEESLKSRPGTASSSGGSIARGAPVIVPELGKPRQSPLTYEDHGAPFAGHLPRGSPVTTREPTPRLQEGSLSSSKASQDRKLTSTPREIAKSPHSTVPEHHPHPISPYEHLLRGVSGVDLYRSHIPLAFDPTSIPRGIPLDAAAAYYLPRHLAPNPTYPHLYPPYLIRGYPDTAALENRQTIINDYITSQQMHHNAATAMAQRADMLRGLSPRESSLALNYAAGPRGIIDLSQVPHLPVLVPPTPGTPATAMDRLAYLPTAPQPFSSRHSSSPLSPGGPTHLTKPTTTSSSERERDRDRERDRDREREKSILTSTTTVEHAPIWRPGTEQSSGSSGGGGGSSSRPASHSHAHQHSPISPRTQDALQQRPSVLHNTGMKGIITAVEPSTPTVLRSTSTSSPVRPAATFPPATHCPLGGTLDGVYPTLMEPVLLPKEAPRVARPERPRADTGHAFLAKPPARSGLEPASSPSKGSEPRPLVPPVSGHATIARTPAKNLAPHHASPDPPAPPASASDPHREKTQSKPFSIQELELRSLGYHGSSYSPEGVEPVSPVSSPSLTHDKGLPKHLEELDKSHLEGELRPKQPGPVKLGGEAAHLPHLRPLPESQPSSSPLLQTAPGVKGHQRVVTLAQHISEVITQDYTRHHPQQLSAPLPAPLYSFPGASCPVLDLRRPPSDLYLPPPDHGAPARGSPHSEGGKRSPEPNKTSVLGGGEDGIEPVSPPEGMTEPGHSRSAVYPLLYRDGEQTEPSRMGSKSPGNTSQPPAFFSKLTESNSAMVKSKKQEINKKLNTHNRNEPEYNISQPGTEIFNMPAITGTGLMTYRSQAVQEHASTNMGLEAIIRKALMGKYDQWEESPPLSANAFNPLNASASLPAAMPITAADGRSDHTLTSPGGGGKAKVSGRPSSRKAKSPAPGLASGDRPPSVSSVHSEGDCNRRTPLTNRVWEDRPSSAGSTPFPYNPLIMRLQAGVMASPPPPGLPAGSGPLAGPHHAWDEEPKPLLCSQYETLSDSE

Histone deacetylase 11 = target: T2, Histone deacetylase 11 (Homo sapiens, UniProt Q96DB2); test: Inhibition of human recombinant HDAC11 using Ac-Leu-Gly-Lys (Ac)-AMC substrate incubated for 30 mins by fluorescence assay
T2 sequence (Q96DB2 whole entry): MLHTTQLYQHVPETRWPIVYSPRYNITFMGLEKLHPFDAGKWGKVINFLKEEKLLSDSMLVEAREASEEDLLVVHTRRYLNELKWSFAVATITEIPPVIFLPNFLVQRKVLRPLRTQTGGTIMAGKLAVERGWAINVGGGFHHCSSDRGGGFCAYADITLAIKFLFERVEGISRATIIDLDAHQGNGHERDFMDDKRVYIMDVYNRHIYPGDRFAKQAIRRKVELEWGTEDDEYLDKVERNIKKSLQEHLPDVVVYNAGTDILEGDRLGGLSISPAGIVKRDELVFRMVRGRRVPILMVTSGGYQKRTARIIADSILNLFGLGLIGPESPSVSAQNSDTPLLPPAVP

[3] = target: T1, Histone deacetylase 3/Nuclear receptor corepressor 2 (HDAC3/NCoR2); test: Inhibition of human recombinant HDAC3/NCoR2 using Ac-Leu-Gly-Lys (Ac)-AMC substrate incubated for 45 mins by fluorescence assay based continuous assay protocol; format: protein-complex assay
[4] = target: T3, Polyamine deacetylase HDAC10 (Homo sapiens, UniProt Q969S8); test: Inhibition of human recombinant HDAC10 using Ac-Arg-His-Lys (Ac)-Lys (Ac)-AMC substrate incubated for 30 mins by fluorescence assay
T3 sequence (Q969S8 whole entry): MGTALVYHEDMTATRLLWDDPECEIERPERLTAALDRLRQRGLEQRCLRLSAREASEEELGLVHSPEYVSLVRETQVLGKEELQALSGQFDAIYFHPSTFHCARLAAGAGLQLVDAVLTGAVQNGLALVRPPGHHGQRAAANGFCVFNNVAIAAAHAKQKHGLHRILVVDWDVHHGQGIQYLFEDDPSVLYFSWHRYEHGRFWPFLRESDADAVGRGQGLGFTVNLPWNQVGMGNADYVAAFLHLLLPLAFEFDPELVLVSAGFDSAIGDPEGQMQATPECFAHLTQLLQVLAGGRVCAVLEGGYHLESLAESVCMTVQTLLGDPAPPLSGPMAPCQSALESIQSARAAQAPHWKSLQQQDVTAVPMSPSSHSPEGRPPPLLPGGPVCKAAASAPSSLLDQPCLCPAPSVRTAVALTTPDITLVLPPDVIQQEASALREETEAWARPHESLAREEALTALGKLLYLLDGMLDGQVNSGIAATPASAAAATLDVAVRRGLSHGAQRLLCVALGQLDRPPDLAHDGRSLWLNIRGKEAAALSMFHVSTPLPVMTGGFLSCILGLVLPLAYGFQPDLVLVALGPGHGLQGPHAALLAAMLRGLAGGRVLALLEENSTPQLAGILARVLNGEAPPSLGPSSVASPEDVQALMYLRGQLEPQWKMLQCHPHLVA

[5] = target: Histone deacetylase 5 (Homo sapiens) (UniProt Q9UQL6); test: Inhibition of human recombinant HDAC5 using Ac-Leu-Gly-Lys (Tfa)-AMC substrate incubated for 30 mins by fluorescence assay
[6] = target: T4, Histone deacetylase 8 (Homo sapiens) (UniProt Q9BY41); test: Inhibition of human recombinant HDAC8 using Ac-Leu-Gly-Lys (Tfa)-AMC substrate incubated for 30 mins by fluorescence assay
T4 sequence (whole entry): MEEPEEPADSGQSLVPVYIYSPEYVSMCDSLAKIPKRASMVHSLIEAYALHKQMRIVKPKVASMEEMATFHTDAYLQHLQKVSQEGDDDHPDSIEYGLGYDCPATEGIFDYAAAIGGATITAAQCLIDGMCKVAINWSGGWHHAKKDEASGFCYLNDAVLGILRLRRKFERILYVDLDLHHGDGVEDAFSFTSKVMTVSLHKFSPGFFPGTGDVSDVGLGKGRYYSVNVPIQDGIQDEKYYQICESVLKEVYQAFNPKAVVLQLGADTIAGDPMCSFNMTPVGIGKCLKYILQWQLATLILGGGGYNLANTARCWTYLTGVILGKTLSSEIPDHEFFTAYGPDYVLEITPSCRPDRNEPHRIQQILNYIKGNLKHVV

[7] = target: T5, Histone deacetylase 7 (Homo sapiens) (UniProt Q8WUI4); test: Inhibition of human recombinant HDAC7 using Ac-Leu-Gly-Lys (Tfa)-AMC substrate incubated for 30 mins by fluorescence assay
T5 sequence (whole entry): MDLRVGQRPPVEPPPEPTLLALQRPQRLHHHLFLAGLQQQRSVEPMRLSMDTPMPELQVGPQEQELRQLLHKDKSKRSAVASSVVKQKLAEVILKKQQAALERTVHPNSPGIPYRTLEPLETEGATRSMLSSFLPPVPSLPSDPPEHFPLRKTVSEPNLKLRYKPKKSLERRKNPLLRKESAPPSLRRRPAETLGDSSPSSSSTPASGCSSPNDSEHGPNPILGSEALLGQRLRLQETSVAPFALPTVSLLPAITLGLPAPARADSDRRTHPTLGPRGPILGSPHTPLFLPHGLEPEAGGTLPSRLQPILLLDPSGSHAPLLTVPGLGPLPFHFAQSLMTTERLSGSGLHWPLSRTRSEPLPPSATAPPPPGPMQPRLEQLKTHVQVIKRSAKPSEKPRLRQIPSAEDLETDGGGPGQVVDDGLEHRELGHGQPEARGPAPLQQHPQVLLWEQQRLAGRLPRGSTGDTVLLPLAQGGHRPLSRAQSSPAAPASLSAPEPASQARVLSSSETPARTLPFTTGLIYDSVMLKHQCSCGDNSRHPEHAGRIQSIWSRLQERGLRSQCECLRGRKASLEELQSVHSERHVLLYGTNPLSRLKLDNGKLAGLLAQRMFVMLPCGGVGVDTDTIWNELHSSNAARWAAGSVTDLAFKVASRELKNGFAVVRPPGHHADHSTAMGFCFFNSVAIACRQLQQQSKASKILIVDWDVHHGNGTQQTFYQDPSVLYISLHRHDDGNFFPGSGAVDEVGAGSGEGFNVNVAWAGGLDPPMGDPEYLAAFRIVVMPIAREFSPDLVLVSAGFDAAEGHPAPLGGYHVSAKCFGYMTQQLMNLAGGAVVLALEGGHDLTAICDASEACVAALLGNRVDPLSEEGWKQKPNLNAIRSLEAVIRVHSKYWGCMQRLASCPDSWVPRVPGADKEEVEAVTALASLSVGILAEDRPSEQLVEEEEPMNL

[8] = target: Histone deacetylase 9 (Homo sapiens) (UniProt Q9UKV0); test: Inhibition of human recombinant HDAC9 using Ac-Leu-Gly-Lys (Tfa)-AMC substrate incubated for 30 mins by fluorescence assay
[9] = target: Histone deacetylase 4 (Homo sapiens) (UniProt P56524); test: Inhibition of human recombinant HDAC4 using Ac-Leu-Gly-Lys (Tfa)-AMC substrate incubated for 30 mins by fluorescence assay
Sequence of Histone deacetylase 4 (Homo sapiens) (P56524 whole entry): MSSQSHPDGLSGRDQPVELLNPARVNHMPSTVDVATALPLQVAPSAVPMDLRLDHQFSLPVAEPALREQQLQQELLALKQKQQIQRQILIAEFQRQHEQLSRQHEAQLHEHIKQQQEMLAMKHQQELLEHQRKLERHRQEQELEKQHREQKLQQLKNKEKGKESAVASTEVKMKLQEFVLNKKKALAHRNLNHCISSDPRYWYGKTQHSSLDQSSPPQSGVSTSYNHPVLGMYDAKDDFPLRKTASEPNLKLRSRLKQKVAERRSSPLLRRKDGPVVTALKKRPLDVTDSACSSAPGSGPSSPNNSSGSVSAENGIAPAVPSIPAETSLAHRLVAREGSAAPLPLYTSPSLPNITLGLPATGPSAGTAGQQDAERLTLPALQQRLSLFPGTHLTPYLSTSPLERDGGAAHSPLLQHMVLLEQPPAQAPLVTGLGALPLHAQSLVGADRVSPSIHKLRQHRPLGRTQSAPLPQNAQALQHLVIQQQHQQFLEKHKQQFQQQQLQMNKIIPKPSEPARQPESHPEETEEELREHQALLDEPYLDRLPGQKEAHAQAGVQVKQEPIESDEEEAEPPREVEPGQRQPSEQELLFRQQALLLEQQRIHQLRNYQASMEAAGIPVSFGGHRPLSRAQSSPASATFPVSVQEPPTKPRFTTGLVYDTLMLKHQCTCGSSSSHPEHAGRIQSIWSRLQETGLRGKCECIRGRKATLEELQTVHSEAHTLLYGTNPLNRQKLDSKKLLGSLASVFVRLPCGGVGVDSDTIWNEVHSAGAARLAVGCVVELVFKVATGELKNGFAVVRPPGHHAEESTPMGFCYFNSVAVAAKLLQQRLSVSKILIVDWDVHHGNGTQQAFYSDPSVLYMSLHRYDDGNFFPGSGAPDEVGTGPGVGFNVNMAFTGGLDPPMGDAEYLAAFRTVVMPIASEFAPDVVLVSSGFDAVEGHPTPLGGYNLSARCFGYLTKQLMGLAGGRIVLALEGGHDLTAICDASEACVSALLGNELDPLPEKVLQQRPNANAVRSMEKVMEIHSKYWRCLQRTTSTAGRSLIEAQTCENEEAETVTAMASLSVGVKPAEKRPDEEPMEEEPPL

[10] = target: T6, Protein deacetylase HDAC6 (Homo sapiens) (UniProt Q9UBN7); test: Inhibition of human recombinant HDAC6 using Ac-Leu-Gly-Lys (Ac)-AMC substrate incubated for 30 mins by fluorescence assay
T6 sequence (whole entry): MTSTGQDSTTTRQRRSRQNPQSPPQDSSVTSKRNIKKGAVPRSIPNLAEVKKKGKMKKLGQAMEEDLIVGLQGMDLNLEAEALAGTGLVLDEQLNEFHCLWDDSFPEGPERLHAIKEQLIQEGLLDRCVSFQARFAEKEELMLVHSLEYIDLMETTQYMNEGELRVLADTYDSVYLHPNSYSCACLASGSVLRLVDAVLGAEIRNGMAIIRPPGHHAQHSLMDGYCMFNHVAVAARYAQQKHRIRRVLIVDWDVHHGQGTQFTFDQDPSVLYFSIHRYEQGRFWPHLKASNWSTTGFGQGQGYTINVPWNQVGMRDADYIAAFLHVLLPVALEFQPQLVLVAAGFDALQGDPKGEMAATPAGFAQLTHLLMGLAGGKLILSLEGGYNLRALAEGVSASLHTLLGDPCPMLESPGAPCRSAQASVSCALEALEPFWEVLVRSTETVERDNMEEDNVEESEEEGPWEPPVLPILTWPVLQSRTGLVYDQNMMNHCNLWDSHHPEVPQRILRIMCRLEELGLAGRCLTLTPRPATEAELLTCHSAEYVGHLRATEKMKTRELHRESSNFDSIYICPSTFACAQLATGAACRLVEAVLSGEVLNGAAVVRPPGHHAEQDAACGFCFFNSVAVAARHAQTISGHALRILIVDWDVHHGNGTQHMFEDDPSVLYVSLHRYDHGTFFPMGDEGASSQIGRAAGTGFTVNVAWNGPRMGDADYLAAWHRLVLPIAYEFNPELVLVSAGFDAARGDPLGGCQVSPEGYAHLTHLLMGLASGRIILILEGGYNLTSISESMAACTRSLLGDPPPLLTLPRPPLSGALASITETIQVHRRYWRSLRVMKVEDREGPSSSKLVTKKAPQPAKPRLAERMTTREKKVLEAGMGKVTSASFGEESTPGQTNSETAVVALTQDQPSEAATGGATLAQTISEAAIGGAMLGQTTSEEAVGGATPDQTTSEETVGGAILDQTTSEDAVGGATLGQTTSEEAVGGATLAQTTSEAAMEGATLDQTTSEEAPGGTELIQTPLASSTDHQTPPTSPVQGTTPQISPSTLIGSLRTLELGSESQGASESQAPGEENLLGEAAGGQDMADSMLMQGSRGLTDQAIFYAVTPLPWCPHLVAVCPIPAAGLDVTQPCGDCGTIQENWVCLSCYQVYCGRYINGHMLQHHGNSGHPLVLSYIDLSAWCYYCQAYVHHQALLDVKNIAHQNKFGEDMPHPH

Compound	GI50 [1]	inhibition (EB-3)	Ki (Histone deacetylase 2)	Ki (Histone deacetylase 1)	Ki [2]	Ki (Histone deacetylase 11)	Ki [3]	Ki [4]	inhibition [5]	inhibition [6]	inhibition [7]	inhibition [8]	inhibition [9]	inhibition [10]
CCC(=O)CCCCC[C@@H]1NC(=O)[C@H]2CCCCN2C(=O)[C@H]([C@@H](C)CC)NC(=O)[C@H](Cc2cn(OC)c3ccccc23)NC1=O [APICIDIN]	800 nM	Active	–	–	–	–	–	–	–	–	–	–	–	–
CC(C)[C@H]1NC(=O)[C@@H](C)[C@@H](C/C=C\CCC(=O)O)NC(=O)[C@@H](Cc2ccc(O)cc2)NC(=O)[C@@H](C)NC1=O [AZUMAMIDE C]	> 25000 nM	inactive	10 nM	20 nM	18 nM	60 nM	9.67 nM	20 nM	–	–	–	–	–	–
CCC[C@H]1NC(=O)[C@@H](Cc2ccc(O)cc2)NC(=O)[C@@H](C)NC(=O)[C@@H](C(C)C)NC(=O)[C@H]1C	> 50000 nM	inactive	1400 nM	2400 nM	3000 nM	6000 nM	780 nM	4000 nM	inactive	inactive	inactive	inactive	inactive	inactive
CC(C)[C@H]1NC(=O)[C@@H](C)[C@@H](C/C=C\CCC(N)=O)NC(=O)[C@@H](Cc2ccc(O)cc2)NC(=O)[C@@H](C)NC1=O [AZUMAMIDE B]	> 50000 nM	inactive	–	–	–	–	–	–	–	–	–	–	–	–

Reference: ChEMBL document CHEMBL3621147, “An azumamide C analogue without the zinc-binding functionality” (Medchemcomm, 2014)
